According to US20260176265A1 (Cancer Research Technology Limited, priority 2022, published 2026):

Legend:
[1] = target: CtermHisTag-mEGFR Triple Mutant - C797S, L858R, T790M (Homo sapiens, UniProt P00533, C797S/L858R/T790M); assay: TR-FRET probe displacement assay, EGFR triple mutant; format: binding; details: T790M 1.25 nM, probe 100 nM, 30 mins room temperature
Protocol: (§1) Compounds (dissolved to 100 mM in DMSO) were dispensed into black low volume 384 well assay plates (Corning) over a final concentration range of 100000, 30000, 10000, 3000, 1000, 300, 100, 30, 10, and 3 nM using an Echo 550 (Labcyte). Positive control compound and DMSO as a negative control were dispensed into the first and last well, respectively. […]. Plates were read using a PheraStar FS (BMG Labtech) at Ex337 nm Ex490/520 nm. The data were analysed using Graphpad Prism/Dotmatics Studies Software. Assays conducted in technical replicate and repeated as a biological duplicate.

[2] = target: CtermHisTag-mEGFR Wild type (Homo sapiens, UniProt P00533); assay: TR-FRET probe displacement assay, EGFR wild type; format: binding; details: EGFR wild type 1.25 nM, probe 100 nM, 30 mins room temperature
Chain of CtermHisTag-mEGFR Wild type (P00533 25-1210): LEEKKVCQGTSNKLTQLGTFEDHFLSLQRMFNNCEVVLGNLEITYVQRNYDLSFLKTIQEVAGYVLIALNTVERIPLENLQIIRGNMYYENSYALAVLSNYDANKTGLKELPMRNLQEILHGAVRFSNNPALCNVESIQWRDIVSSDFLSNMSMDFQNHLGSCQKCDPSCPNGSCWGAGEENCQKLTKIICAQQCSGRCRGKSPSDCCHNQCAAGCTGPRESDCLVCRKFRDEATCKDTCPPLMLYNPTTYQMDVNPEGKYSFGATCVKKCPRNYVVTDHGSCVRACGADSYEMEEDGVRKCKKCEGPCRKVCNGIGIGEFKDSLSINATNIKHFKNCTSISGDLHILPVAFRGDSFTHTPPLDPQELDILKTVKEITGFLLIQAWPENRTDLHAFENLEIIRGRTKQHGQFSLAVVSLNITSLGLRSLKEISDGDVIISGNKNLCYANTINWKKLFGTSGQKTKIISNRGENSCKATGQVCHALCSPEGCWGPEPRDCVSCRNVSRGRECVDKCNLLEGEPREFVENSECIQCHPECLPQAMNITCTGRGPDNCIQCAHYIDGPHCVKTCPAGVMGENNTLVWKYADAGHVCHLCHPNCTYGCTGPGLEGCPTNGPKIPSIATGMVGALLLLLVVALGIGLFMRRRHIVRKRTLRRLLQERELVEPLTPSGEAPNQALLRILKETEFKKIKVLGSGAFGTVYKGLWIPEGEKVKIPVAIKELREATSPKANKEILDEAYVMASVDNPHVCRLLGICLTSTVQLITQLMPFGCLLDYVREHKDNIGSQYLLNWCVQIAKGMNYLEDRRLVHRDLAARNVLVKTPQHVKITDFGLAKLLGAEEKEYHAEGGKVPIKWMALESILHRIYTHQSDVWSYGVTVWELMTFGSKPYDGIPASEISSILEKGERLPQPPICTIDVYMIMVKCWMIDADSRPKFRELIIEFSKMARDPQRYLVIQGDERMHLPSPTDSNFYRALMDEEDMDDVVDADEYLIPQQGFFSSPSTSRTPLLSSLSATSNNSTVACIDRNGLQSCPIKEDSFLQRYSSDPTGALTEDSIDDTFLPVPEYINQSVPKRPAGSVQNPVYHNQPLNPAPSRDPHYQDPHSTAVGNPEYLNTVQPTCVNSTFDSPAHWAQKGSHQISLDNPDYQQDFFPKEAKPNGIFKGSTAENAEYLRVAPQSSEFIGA
Protocol: as §1

[3] = target: T1, Phospho-EGFR (Tyr1068) in H1975 cells (Homo sapiens, UniProt P00533, L858R/T790M); assay: HTRF pEGFR/total EGFR assay in H1975 cells; format: cell-based; details: compound 3 hours, ratio pEGFR/total EGFR
T1 construct: host or cells: H1975
T1 sequence (P00533 25-1210 T790M/L858R): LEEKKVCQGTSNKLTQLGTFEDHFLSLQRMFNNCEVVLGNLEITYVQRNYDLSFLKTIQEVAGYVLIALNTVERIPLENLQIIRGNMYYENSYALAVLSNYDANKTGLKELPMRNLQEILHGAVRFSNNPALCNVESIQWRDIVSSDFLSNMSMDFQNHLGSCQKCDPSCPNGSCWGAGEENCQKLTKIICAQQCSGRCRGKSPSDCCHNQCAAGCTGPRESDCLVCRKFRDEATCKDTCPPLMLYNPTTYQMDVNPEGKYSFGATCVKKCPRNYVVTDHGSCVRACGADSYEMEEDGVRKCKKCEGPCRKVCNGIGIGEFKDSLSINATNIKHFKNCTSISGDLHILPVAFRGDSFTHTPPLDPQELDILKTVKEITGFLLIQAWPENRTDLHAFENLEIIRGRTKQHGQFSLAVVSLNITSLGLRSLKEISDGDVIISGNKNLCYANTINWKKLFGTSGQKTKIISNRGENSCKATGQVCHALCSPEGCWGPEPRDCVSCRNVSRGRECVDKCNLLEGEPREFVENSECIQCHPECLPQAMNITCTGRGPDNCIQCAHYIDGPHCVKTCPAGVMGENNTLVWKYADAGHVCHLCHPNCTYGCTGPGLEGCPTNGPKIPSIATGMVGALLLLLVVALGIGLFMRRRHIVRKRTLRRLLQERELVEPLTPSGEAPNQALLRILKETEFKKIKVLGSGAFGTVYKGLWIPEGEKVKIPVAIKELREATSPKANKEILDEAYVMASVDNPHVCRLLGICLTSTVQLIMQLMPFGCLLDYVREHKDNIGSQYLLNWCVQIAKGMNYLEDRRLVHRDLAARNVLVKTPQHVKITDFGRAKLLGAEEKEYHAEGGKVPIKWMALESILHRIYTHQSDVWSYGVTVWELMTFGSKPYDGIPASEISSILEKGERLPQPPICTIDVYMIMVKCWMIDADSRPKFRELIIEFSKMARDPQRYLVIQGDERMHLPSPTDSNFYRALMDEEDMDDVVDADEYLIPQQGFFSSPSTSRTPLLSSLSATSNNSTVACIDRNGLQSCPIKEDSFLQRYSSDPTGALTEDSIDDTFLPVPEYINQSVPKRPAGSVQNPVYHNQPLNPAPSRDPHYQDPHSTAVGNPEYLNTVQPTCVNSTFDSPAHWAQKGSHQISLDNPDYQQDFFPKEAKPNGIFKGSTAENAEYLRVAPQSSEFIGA
Protocol: H1975 cells (ATCC CRL-5908) were plated at 20,000 cells per well in 96 well plates and placed at 37° C. 5% CO2. Once adhered (after 24h) cells were treated with compounds dissolved in DMSO at a final concentration of 0.1% DMSO in media. Compounds were diluted in media then added to cells for 3 hours in duplicate. Compound and media were removed from the cells, then 50ul of HTRF lysis buffer is added (lysis buffer was diluted from 4× stock to 1× in DI water, with 1% blocking agent also added). Cells were lysed on a plate shaker (2000 rpm) for 30 minutes at room temperature. pEGFR expression was monitored using the Cisbio Phospho-EGFR (Tyri068) cellular kit (64EG1 PEH). Total EGFR expression was monitored using the Cisbio Total EGFR cellular kit (64NG1 PEH) as per manufacturer's instructions. Fluorescence emission was read at two different wavelengths (665 nm and 620 nm) on a PheraStar. Results were calculated as ratio of pEGFR/total EGFR and then percentage of 0 uM control.

[4] = target: T2, Phospho-EGFR (Tyr1068) in H1975 C797S cells (Homo sapiens, UniProt P00533, C797S/L858R/T790M); assay: HTRF pEGFR/total EGFR assay in H1975 C797S cells; format: cell-based; details: H1975 C797S cells (CRISPR), compound 3 hours, ratio pEGFR/total EGFR
T2 construct: endogenous in cells; host or cells: H1975 C797S (CRISPR-edited in house from ATCC CRL-5908)
T2 sequence (P00533 25-1210 T790M/C797S/L858R): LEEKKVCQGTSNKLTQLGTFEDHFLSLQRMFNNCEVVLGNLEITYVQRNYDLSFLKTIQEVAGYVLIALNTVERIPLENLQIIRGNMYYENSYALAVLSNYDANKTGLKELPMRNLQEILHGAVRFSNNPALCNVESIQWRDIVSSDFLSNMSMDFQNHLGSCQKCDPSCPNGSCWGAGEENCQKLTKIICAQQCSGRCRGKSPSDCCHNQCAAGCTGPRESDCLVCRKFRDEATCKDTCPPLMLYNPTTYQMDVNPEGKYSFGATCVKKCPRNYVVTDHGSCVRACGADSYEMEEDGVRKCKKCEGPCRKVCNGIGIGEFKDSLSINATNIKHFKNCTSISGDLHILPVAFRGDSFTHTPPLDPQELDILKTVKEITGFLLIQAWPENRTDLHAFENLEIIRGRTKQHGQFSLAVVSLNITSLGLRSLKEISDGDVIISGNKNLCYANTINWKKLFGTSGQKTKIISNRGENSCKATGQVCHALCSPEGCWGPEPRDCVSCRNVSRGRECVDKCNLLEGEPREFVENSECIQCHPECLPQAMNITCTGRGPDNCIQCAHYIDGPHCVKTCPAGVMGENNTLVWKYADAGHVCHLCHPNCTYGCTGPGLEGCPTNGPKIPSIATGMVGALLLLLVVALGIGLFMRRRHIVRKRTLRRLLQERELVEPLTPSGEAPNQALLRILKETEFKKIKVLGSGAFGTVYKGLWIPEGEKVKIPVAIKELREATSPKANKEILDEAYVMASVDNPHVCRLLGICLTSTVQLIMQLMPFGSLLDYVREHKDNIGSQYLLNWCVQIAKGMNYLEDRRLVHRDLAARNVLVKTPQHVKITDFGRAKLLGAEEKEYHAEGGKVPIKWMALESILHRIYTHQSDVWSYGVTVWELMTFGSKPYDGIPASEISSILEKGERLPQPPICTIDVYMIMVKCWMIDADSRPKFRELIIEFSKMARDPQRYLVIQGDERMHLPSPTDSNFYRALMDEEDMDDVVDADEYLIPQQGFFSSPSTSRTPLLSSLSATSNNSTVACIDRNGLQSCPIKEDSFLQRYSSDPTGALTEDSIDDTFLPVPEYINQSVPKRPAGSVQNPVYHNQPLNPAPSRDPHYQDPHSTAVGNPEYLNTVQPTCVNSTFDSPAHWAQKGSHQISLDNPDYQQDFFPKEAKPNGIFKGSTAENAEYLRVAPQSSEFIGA
Protocol: H1975 C797S cells (ATCC CRL-5908) were genetically engineered by CRISPR editing of EGFR C797S in house and validated by NGS. Cells were plated at 20,000 cells per well in 96 well plates and placed at 37° C. 5% CO2. Once adhered (after 24h) cells were treated with compounds dissolved in DMSO at a final concentration of 0.1% DMSO in media. Compounds were diluted in media then added to cells for 3 hours in duplicate. Compound and media were removed from the cells, then 50 ul of HTRF lysis buffer was added (lysis buffer was diluted from 4× stock to 1× in DI water, with 1% blocking agent also added). Cells were lysed on a plate shaker (2000 rpm) for 30 minutes at room temperature. pEGFR expression was monitored using the Cisbio Phospho-EGFR (Tyr1068) cellular kit (64EG1PEH). Total EGFR expression was monitored using the Cisbio Total EGFR cellular kit (64NG1PEH) as per manufacturer's instructions. Fluorescence emission was read at two different wavelengths (665 nm and 620 nm) on a PheraStar. Results were calculated as ratio of pEGFR/total EGFR and then percentage of 0 uM control.

[5] = target: T3, Phospho-EGFR (Tyr1068) in A431 cells (Homo sapiens, UniProt P00533); assay: HTRF pEGFR/total EGFR assay in A431 cells (EGF stimulated); format: cell-based; details: compound 2.5 hours then 100 ng/ml EGF 30 mins, ratio pEGFR/total EGFR
T3 construct: endogenous in cells; host or cells: A431
Protocol: Cells were plated at 20,000 cells per well in 96 well plates and placed at 37° C. 5% CO2. Once adhered (after 24h) cells were treated with compounds dissolved in DMSO at a final concentration of 0.1% DMSO in media. Compounds were diluted in media then added to cells for 2.5 hours in duplicate, 100 ng/ml EGF (ThermoFisher, PHG0311 was is added to all compound treated cells as well as a control for 30 mins. Compound and media were removed from the cells, then 50ul of HTRF lysis bufferwas added (lysis bufferwas diluted from 4× stock to 1× in DI water, with 1% blocking agent also added). Cells were lysed on a plate shaker (2000 rpm) for 30 minutes at room temperature. pEGFR expression was monitored using the Cisbio Phospho-EGFR (Tyr1068) cellular kit (64EG1PEH). Total EGFR expression was monitored using the Cisbio Total EGFR cellular kit (64NG1PEH) as per manufacturer's instructions. Fluorescence emission was read at two different wavelengths (665 nm and 620 nm) on a PheraStar. Results were calculated as ratio of pEGFR/total EGFR and then percentage of OuM control.

Chain of CtermHisTag-mEGFR Triple Mutant - C797S, L858R, T790M (P00533 25-1210 T790M/C797S/L858R): as above

Compound | IC50 [1] | IC50 [2] | IC50 [3] | IC50 [4] | IC50 [5]
C#Cc1ccnc2nc(Nc3ccccc3OC)ncc12 [Example 1, 5-ethynyl-N-(2-methoxyphenyl)pyrido[2,3-d]pyrimidin-2-amine] | 100 to 1000 nM | > 10000 nM |  |  | 
C#Cc1cc(OC)nc2nc(Nc3ccc(N(C)CCN(C)C)cc3)ncc12 [Example 2, N^1-(2-(dimethylamino)ethyl)-N^4-(5-ethynyl-7-methoxypyrido[2,3-d]pyrimidin-2-yl)-N^1-methylbenzene-1,4-diamine] | 100 to 1000 nM | > 10000 nM | 1000 to 3000 nM | > 3000 nM | > 3000 nM
C#Cc1cc(OC)nc2nc(Nc3ccc(N4CCN(C)CC4)cc3)ncc12 [Example 3, 5-ethynyl-7-methoxy-N-(4-(4-methylDiDerazin-1-yl)phenyl)vrido[2,3-d]pyrimidin-2-amine] | 100 to 1000 nM | > 10000 nM | 500 to 1000 nM | 1000 to 3000 nM | > 3000 nM
C#Cc1cc(OC)nc2nc(Nc3cccc(CN(C)C4CCC4)c3)ncc12 [Example 4, N-(3-{[cyclobutyl(methyl)amino]methyl}phenyl)-5-ethynyl-7-methoxypyrido[2,3-d]pyrimidin-2-amine] | 100 to 1000 nM | > 10000 nM | > 3000 nM | > 3000 nM | > 3000 nM
C#Cc1cc(OC)nc2nc(Nc3ccc(N4CCN(C)CC4)c(N(C)C)c3)ncc12 [Example 5, N^3-{5-ethynyl-7-methoxypyrido[2,3-d]pyrimidin-2-yl}-N^1,N^1-dimethyl-6-(4-methylpiperazin-1-yl)benzene-1,3-diamine] | 100 to 1000 nM | > 10000 nM | > 3000 nM | > 3000 nM | > 3000 nM
C#Cc1cc(OC)nc2nc(Nc3ccc(N4CCN(C)CC4)c(Nc4ccccc4)c3)ncc12 [Example 6, N^1-{5-ethynyl-7-methoxypyrido[2,3-d]pyrimidin-2-yl}-4-(4-methylpiperazin-1-yl)-N^3-phenylbenzene-1,3-diamine] | 20 to 100 nM | 1000 to 10000 nM | 1000 to 3000 nM | > 3000 nM | > 3000 nM
C#Cc1cc(OC)nc2nc(Nc3cccc(CN(C)C(C)=O)c3)ncc12 [Example 7, N-{[3-({5-ethynyl-7-methoxypyrido[2,3-d]pyrimidin-2-yl}amino)pheny]methyl}-N-methylacetamide] | 100 to 1000 nM | > 10000 nM | > 3000 nM | > 3000 nM | > 3000 nM
C#Cc1cc(OC)nc2nc(Nc3ccc(N4CCN(C)CC4)c(NC4CCC4)c3)ncc12 [Example 8, N^3-cyclobutyl-N^1-{5-ethynyl-7-methoxypyrido[2,3-d]pyrimidin-2-yl}-4-(4-methylpiperazin-1-yl)benzene-1,3-diamine] | 20 to 100 nM | 1000 to 10000 nM | 1000 to 3000 nM | > 3000 nM | > 3000 nM
C#Cc1cc(OC)nc2nc(Nc3cccc(CN(C)C)c3)ncc12 [Example 9, N-{3-[(dimethylamino)methyl]phenyl}-5-ethynyl-7-methoxypyrido[2,3-d] pyrimidin-2-amine] | 100 to 1000 nM | > 10000 nM | > 3000 nM | > 3000 nM | > 3000 nM
C#Cc1cc(OC)nc2nc(Nc3ccc(N4CCN(C)CC4)c(NCC4CCC4)c3)ncc12 [Example 10, N^3-(cyclobutylmethyl)-N^1-{5-ethynyl-7-methoxypyrido[2,3-d]pyrimidin-2-yl}-4-(4-methylpiperazin-1-yl)benzene-1,3-diamine] | 20 to 100 nM | 1000 to 10000 nM | > 3000 nM | > 3000 nM | > 3000 nM
C#Cc1cc(OC)nc2nc(Nc3ccc(N4CCN(C)CC4)c(NCc4ccn(C)n4)c3)ncc12 [Example 11, N^1-{5-ethynyl-7-methoxypyrido[2,3-d]pyrimidin-2-yl}-4-(4-methylpiperazin-1-yl)-N^3-[(1-methylpyrazol-3-yl)methyl]benzene-1,3-diamine] | 100 to 1000 nM | > 10000 nM | > 3000 nM | > 3000 nM | > 3000 nM
C#Cc1cc(Oc2ccccc2)nc2nc(Nc3ccc(N4CCN(C)CC4)cc3)ncc12 [Example 12, 5-ethynyl-N-[4-(4-methylpiperazin-1-yl)phenyl]-7-phenoxypyrido[2,3-d]pyrimidin-2-amine] | 100 to 1000 nM | > 10000 nM | > 3000 nM | > 3000 nM | > 3000 nM
C#Cc1cc(OCc2cscn2)nc2nc(Nc3ccc(N4CCN(C)CC4)cc3)ncc12 [Example 13, 5-ethynyl-N-[4-(4-methylpiperazin-1-yl)phenyl]-7-(1,3-thiazol-4-ylmethoxy)pyrido[2,3-d]pyrimidin-2-amine] | 20 to 100 nM | > 10000 nM | 1000 to 3000 nM | > 3000 nM | > 3000 nM
C#Cc1cc(OC2CCCCC2)nc2nc(Nc3ccc(N4CCN(C)CC4)cc3)ncc12 [Example 14, 7-(cyclohexyloxy)-5-ethynyl-N-(4-(4-methylpiperazin-1-yl)phenyl)pyrido[2,3-d]pyrimidin-2-amine] | 100 to 1000 nM | > 10000 nM | > 3000 nM | > 3000 nM | > 3000 nM
C#Cc1cc(OC2CC2)nc2nc(Nc3ccc(N4CCN(C)CC4)cc3)ncc12 [Example 16, 7-cyclopropoxy-5-ethynyl-N-[4-(4-methylpiperazin-1-yl)phenyl]pyrido[2,3-d]pyrimidin-2-amine] | 100 to 1000 nM | > 10000 nM | 1000 to 3000 nM | > 3000 nM | > 3000 nM
C#Cc1cc(OC(C)C)nc2nc(Nc3ccc(N4CCN(C)CC4)cc3)ncc12 [Example 17, 5-ethynyl-7-isopropoxy-N-[4-(4-methylpiperazin-1-yl)phenyl]pyrido[2,3-d]pyrimidin-2-amine] | 100 to 1000 nM | > 10000 nM | 1000 to 3000 nM | 1000 to 3000 nM | > 3000 nM
C#Cc1cc(NC(=O)NC2CCCC2)nc2nc(Nc3cccc(N(C)[C@H]4C[C@@H](CS(C)(=O)=O)C4)c3)ncc12 [Example 119] | 20 to 100 nM | < 1000 nM | < 500 nM | < 500 nM | 
C#Cc1cc(NC(=O)NC2CCCC2)nc2nc(Nc3cccc(N(C)[C@H]4CC[C@@H](CS(C)(=O)=O)CC4)c3)ncc12 [Example 120] | 20 to 100 nM | < 1000 nM | < 500 nM | < 500 nM | 
C#Cc1cc(NC(=O)NC2CCCC2)nc2nc(Nc3cccc(N(C)[C@H]4CC[C@H](CS(C)(=O)=O)CC4)c3)ncc12 [Example 121] | 20 to 100 nM | < 1000 nM | 500 to 1000 nM | < 500 nM | 
